Publication PMC12274840 (The Journal of Biological Chemistry, 2025)
In brackets after ≈: the same amount, converted by molar mass.

Key:
Assay type in all cases: cell-based, Escherichia coli
Conditions in all cases: antibiotic alone
[1] = system: E. coli KA797 cells carrying pUK21 with BlaC I105G
[2] = system: E. coli KA797 cells carrying pUK21 with BlaC I105R
[3] = system: E. coli KA797 cells carrying pUK21 with CTX-M-14 Y105R
[4] = system: E. coli KA797 cells carrying pUK21 with CTX-M-14 Y105G

## CC1(C)S[C@@H]2[C@H](NC(=O)C(C(=O)O)c3ccccc3)C(=O)N2[C@H]1C(=O)O (stereo partly shown) [carbenicillin]
[1]
  MIC: 800 µg/mL (≈ 2.11 mM)
[2]
  MIC: 1600 µg/mL (≈ 4.23 mM)
[3]
  MIC: 2000 µg/mL (≈ 5.29 mM)
[4]
  MIC: 1000 µg/mL (≈ 2.64 mM)
